Measurements published in the supplement of paper PMC11451515.

Test system: NOMO1
Test: cell viability relative to DMSO control; higher = less cytotoxic
Details: 48 h
Procedure, shortened: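 In 1536-well plates, 5 μl of leukemia cells were seeded per well: 500 cells/well for NOMO1 or SEM and 1000 cells/well for P12-Ichikawa. Each line had first been adapted for at least four passages in each medium. Library compounds in DMSO were pin-dosed at 11 threefold concentrations between 47 μM and 0.79 nM, and CellTiter-Glo One luminescence was read after 48 h at 37°C. Viability is a per-plate percentage relative to DMSO wells, with cell-free wells as background.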

[1] = RPMI 5 mM glucose + 10% FBS, 0.000781 µM
[2] = RPMI 5 mM glucose + 10% FBS, 0.00234 µM
[3] = RPMI 5 mM glucose + 10% FBS, 0.00702 µM
[4] = RPMI 5 mM glucose + 10% FBS, 0.0211 µM
[5] = RPMI 5 mM glucose + 10% FBS, 0.0632 µM
[6] = RPMI 5 mM glucose + 10% FBS, 0.19 µM
[7] = RPMI 5 mM glucose + 10% FBS, 0.569 µM
[8] = RPMI 5 mM glucose + 10% FBS, 1.71 µM
[9] = RPMI 5 mM glucose + 10% FBS, 5.12 µM
[10] = RPMI 5 mM glucose + 10% FBS, 15.4 µM
[11] = RPMI 5 mM glucose + 10% FBS, 46.1 µM
[12] = RPMI 5 mM glucose + 10% dialyzed FBS, 0.000781 µM
[13] = RPMI 5 mM glucose + 10% dialyzed FBS, 0.00234 µM
[14] = RPMI 5 mM glucose + 10% dialyzed FBS, 0.00702 µM
[15] = RPMI 5 mM glucose + 10% dialyzed FBS, 0.0211 µM
[16] = RPMI 5 mM glucose + 10% dialyzed FBS, 0.0632 µM
[17] = RPMI 5 mM glucose + 10% dialyzed FBS, 0.19 µM
[18] = RPMI 5 mM glucose + 10% dialyzed FBS, 0.569 µM
[19] = RPMI 5 mM glucose + 10% dialyzed FBS, 1.71 µM
[20] = RPMI 5 mM glucose + 10% dialyzed FBS, 5.12 µM
[21] = RPMI 5 mM glucose + 10% dialyzed FBS, 15.4 µM
[22] = RPMI 5 mM glucose + 10% dialyzed FBS, 46.1 µM
[23] = HPLM + 10% dialyzed FBS, 0.000781 µM
[24] = HPLM + 10% dialyzed FBS, 0.00234 µM
[25] = HPLM + 10% dialyzed FBS, 0.00702 µM
[26] = HPLM + 10% dialyzed FBS, 0.0211 µM
[27] = HPLM + 10% dialyzed FBS, 0.0632 µM
[28] = HPLM + 10% dialyzed FBS, 0.19 µM
[29] = HPLM + 10% dialyzed FBS, 0.569 µM
[30] = HPLM + 10% dialyzed FBS, 1.71 µM
[31] = HPLM + 10% dialyzed FBS, 5.12 µM
[32] = HPLM + 10% dialyzed FBS, 15.4 µM
[33] = HPLM + 10% dialyzed FBS, 46.1 µM

Compound	cell viability [1]	cell viability [2]	cell viability [3]	cell viability [4]	cell viability [5]	cell viability [6]	cell viability [7]	cell viability [8]	cell viability [9]	cell viability [10]	cell viability [11]	cell viability [12]	cell viability [13]	cell viability [14]	cell viability [15]	cell viability [16]	cell viability [17]	cell viability [18]	cell viability [19]	cell viability [20]	cell viability [21]	cell viability [22]	cell viability [23]	cell viability [24]	cell viability [25]	cell viability [26]	cell viability [27]	cell viability [28]	cell viability [29]	cell viability [30]	cell viability [31]	cell viability [32]	cell viability [33]
CCOC(=O)[C@@]1(CCCCCCOc2ccc(Cl)cc2)CO1	120%	118%	109%	107%	108%	115%	106%	106%	96.5%	86.7%	48.1%	117%	117%	114%	112%	111%	111%	113%	108%	107%	96%	56.8%	–	–	–	–	–	–	–	–	–	–	–
CN(C)c1ccc2nc3ccc(N(C)C)cc3[s+]c2c1	96%	91.9%	89.2%	92.1%	93.4%	93.6%	100%	86.4%	78.1%	7.62%	3.06%	102%	99.7%	99.6%	87.4%	94.2%	86.7%	102%	86.5%	65%	10.1%	3.9%	115%	94.5%	122%	97.9%	106%	90.7%	102%	91.1%	73.2%	25.9%	12.1%
C=C1C(=O)OC(CCCCCCCC)C1C(=O)O (stereo unspecified)	113%	114%	112%	122%	131%	127%	119%	132%	129%	127%	124%	109%	123%	113%	130%	135%	136%	125%	120%	121%	129%	120%	107%	125%	123%	135%	135%	139%	130%	125%	104%	136%	118%
CCC(C)N1\N=C/N(C1=O)C2=CC=C(C=C2)N3CCN(CC3)C4=CC=C(OC[C@H]5CO[C@@](C[N]6C=NC=N6)(O5)C7=CC=C(Cl)C=C7Cl)C=C4 (stereo partly specified)	101%	108%	113%	99.6%	111%	121%	93.9%	101%	102%	95.3%	85.8%	102%	104%	119%	124%	111%	113%	120%	103%	98.9%	99.6%	86.2%	110%	98.9%	117%	121%	122%	97.2%	108%	102%	107%	90.4%	86%
O=C1CCC[C@@H]2[C@H]3CCCN4CCC[C@@H](CN12)[C@@H]34	79%	92.2%	84.6%	86.8%	85.2%	90.9%	55.3%	85.2%	17.2%	13.9%	7.48%	66.1%	79.6%	90.2%	82.9%	86%	93.6%	69.3%	77.8%	19.1%	18.6%	10.8%	59.1%	68.9%	78.1%	87.1%	87.2%	94.8%	38.3%	93.2%	26.6%	25.3%	13.6%
CCOC(=O)C(C#N)C\1C2=CC(=CC=C2O\C(=C1C(=O)OCC)N)Br (stereo unspecified)	97.8%	90.3%	97.5%	87.9%	99.3%	102%	107%	91.5%	94.5%	83.7%	82.4%	99.1%	95.1%	99%	95.7%	104%	83.8%	94.4%	94.7%	96.7%	80.3%	82.6%	113%	120%	110%	99.9%	114%	104%	96.1%	107%	117%	92.4%	97.5%
CC(C)N(C[C@H]1O[C@@H](n2cnc3c(N)ncnc32)[C@H](O)[C@@H]1O)[C@H]1C[C@@H](CCc2nc3cc(C(C)(C)C)ccc3[nH]2)C1	84%	92.4%	113%	91.5%	91.8%	115%	94.9%	113%	99.1%	93.3%	9%	74.4%	95.6%	97.2%	91.8%	95.3%	103%	102%	99.9%	86.6%	96.1%	6.04%	96.9%	98.5%	111%	109%	110%	109%	113%	79.3%	36.1%	65.5%	7.55%
OC1=CC=C(C=C1)\C2=C\OC3=C(C(=CC(=C3)O)O)C2=O	108%	111%	107%	117%	104%	115%	108%	109%	112%	123%	110%	94.7%	113%	99.8%	110%	118%	117%	107%	108%	118%	115%	103%	110%	112%	117%	120%	116%	122%	124%	113%	107%	137%	117%
C[C@@H]1CCN(C(=O)CC#N)C[C@@H]1N(C)c1ncnc2[nH]ccc12	97.2%	84.6%	83.3%	75.8%	77.8%	72%	73.4%	71.8%	81.6%	80.9%	75.7%	89%	89.1%	84.9%	88.4%	87.5%	80.7%	69.3%	101%	91.9%	88.4%	84.7%	93.6%	81.7%	91.7%	84.4%	97.6%	77.1%	94.7%	76.3%	83.6%	81.9%	73.6%
CC(C)=CCC/C(C)=C/CC/C(C)=C/CC/C(C)=C/CC/C(C)=C/CC/C(C)=C/CC/C(C)=C/CC/C(C)=C/CC/C(C)=C/CO	95.7%	96.3%	108%	100%	101%	105%	115%	104%	92.6%	92.8%	88.3%	92.2%	91%	111%	93.6%	103%	113%	94.4%	95.6%	91.6%	87.7%	86.9%	117%	123%	105%	92.7%	107%	114%	112%	117%	100%	96.6%	102%
C[C@@H]1CN(Cc2ccc(F)cc2)[C@@H](C)CN1C(=O)c1cc2c(C(=O)C(=O)N(C)C)cn(C)c2cc1Cl	103%	122%	118%	120%	123%	124%	124%	108%	114%	115%	118%	125%	117%	115%	118%	128%	127%	124%	132%	119%	127%	111%	103%	121%	118%	119%	129%	139%	139%	128%	131%	123%	74.8%
Cc1cn([C@H]2C=C[C@@H](CO)O2)c(=O)[nH]c1=O	88.6%	94.3%	100%	106%	98.7%	111%	111%	102%	116%	120%	115%	106%	124%	118%	112%	125%	123%	122%	121%	113%	129%	131%	105%	101%	116%	123%	101%	114%	125%	115%	96.4%	108%	107%
[O-]C(=O)C/1=N/C(=O)NC(=O)N1	93.5%	96.8%	99.9%	88.9%	92.8%	91.8%	86.3%	91.3%	85.4%	80.9%	93.1%	90.2%	93.2%	88.2%	86.2%	90.8%	92.8%	81.1%	78.5%	79.9%	77%	81.8%	87.7%	108%	92.9%	96.9%	101%	95.1%	86.3%	96.9%	85.4%	83.4%	88.9%
CCOc1cc2ncc(C#N)c(Nc3ccc(F)c(Cl)c3)c2cc1NC(=O)/C=C/CN(C)C	118%	128%	116%	124%	123%	118%	102%	85.6%	66.2%	76.3%	10.4%	–	–	–	–	–	–	–	–	–	–	–	120%	133%	111%	114%	127%	84.9%	80.9%	57%	50.8%	42.7%	4.8%
Cc1ccc([N+](=O)[O-])cc1[S+](=O)([O-])N(C)/N=C/c1cnc2ccc(Br)cn12	121%	105%	95.9%	98.7%	84.6%	17.3%	7.83%	5.79%	5.05%	4.32%	4.08%	102%	93.9%	100%	94.2%	76.1%	19.2%	5.29%	4.54%	4.24%	4%	2.94%	110%	116%	107%	89.8%	56.5%	12%	6.54%	5.77%	4.83%	4.05%	3.68%
COc1ccc(C(CN(C)C)C2(O)CCCCC2)cc1 (stereo unspecified)	44.9%	118%	122%	118%	113%	120%	104%	104%	107%	97.2%	109%	46.1%	111%	111%	117%	105%	104%	96.4%	109%	97.9%	111%	100%	101%	125%	124%	125%	115%	127%	120%	104%	124%	94.5%	95.3%
